Laboratory results as given in the supplement of paper PMC10307832.

Tests used:
Experiment in all cases: relative viability (nuclei count vs DMSO), 5 days (fraction); higher = more cells survive
KIN001-266 + Navitoclax = compound: CCN1CCC(CC1)N2C=C(N=N2)CNC3=CC4=C(C(=CN=C4C(=C3)Cl)C#N)NC5=CC(=C(C=C5)F)Cl [KIN001-266] + CC1(C)CCC(c2ccc(Cl)cc2)=C(CN2CCN(c3ccc(C(=O)NS(=O)(=O)c4ccc(N[C@H](CCN5CCOCC5)CSc5ccccc5)c(S(=O)(=O)C(F)(F)F)c4)cc3)CC2)C1 [Navitoclax] (partner 0.5 µM)
Method in brief: (§1)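 A single step with final 0.05% Triton X-100, 1% formaldehyde and 1 ug/ml Hoechst fixed the cells and stained nuclei 5 days after treatment. Lung cancer cell lines in 1536-well plates had been treated by pin tool the day after seeding with one drug alone or a fixed anchor-drug dose plus five library-drug doses (not always all listed) in √10 steps, and nuclei were counted on 4× images. Relative viability is the ratio of nuclei in treated wells to nuclei in vehicle wells, taken as the median of duplicate plates.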

KIN001-266 + Crizotinib = compound: CCN1CCC(CC1)N2C=C(N=N2)CNC3=CC4=C(C(=CN=C4C(=C3)Cl)C#N)NC5=CC(=C(C=C5)F)Cl [KIN001-266] + C[C@@H](Oc1cc(-c2cnn(C3CCNCC3)c2)cnc1N)c1c(Cl)ccc(F)c1Cl [Crizotinib] (partner 1 µM)
Method in brief: as §1

KIN001-266 + Tozasertib = compound: CCN1CCC(CC1)N2C=C(N=N2)CNC3=CC4=C(C(=CN=C4C(=C3)Cl)C#N)NC5=CC(=C(C=C5)F)Cl [KIN001-266] + Cc1cc(Nc2cc(N3CCN(C)CC3)nc(Sc3ccc(NC(=O)C4CC4)cc3)n2)n[nH]1 [Tozasertib] (partner 0.1 µM)
Method in brief: as §1

KIN001-266 + Vorinostat = compound: CCN1CCC(CC1)N2C=C(N=N2)CNC3=CC4=C(C(=CN=C4C(=C3)Cl)C#N)NC5=CC(=C(C=C5)F)Cl [KIN001-266] + O=C(CCCCCCC(=O)Nc1ccccc1)NO [Vorinostat] (partner 1 µM)
Method in brief: as §1

Cell Line	relative viability (KIN001-266 + Navitoclax; first compound 0.08 µM)	relative viability (KIN001-266 + Navitoclax; first compound 0.253 µM)	relative viability (KIN001-266 + Navitoclax; first compound 0.8 µM)	relative viability (KIN001-266 + Navitoclax; first compound 2.53 µM)	relative viability (KIN001-266 + Navitoclax; first compound 8 µM)	relative viability (KIN001-266 + Crizotinib; first compound 0.08 µM)	relative viability (KIN001-266 + Crizotinib; first compound 0.253 µM)	relative viability (KIN001-266 + Crizotinib; first compound 0.8 µM)	relative viability (KIN001-266 + Crizotinib; first compound 2.53 µM)	relative viability (KIN001-266 + Crizotinib; first compound 8 µM)	relative viability (KIN001-266 + Tozasertib; first compound 0.08 µM)	relative viability (KIN001-266 + Tozasertib; first compound 0.253 µM)	relative viability (KIN001-266 + Tozasertib; first compound 0.8 µM)	relative viability (KIN001-266 + Tozasertib; first compound 2.53 µM)	relative viability (KIN001-266 + Tozasertib; first compound 8 µM)	relative viability (KIN001-266 + Vorinostat; first compound 0.08 µM)	relative viability (KIN001-266 + Vorinostat; first compound 0.253 µM)	relative viability (KIN001-266 + Vorinostat; first compound 0.8 µM)	relative viability (KIN001-266 + Vorinostat; first compound 2.53 µM)	relative viability (KIN001-266 + Vorinostat; first compound 8 µM)
NCI-H441	0.688	0.635	0.483	0.623	0.531	0.86	0.874	0.756	0.775	0.665	0.75	0.737	0.557	0.56	0.261	0.968	0.765	0.58	0.617	0.584
SK-MES-1	1.25	1.17	1.11	1.04	0.858	1.02	1.09	0.948	0.923	0.888	0.944	0.869	0.934	0.756	0.66	1.1	1.19	1.03	1.03	0.713
NCI-H1355	0.981	0.955	0.963	0.873	0.812	1.12	1.04	1.09	0.966	0.939	0.62	0.593	0.515	0.513	0.506	0.615	0.65	0.636	0.631	0.62
SW 1573	1.05	1.05	1.03	0.91	0.643	0.695	0.846	0.81	0.663	0.68	0.219	0.186	0.162	0.184	0.224	0.796	0.625	1.06	0.835	0.654
NCI-H2347	0.869	0.747	0.787	0.834	0.453	0.675	0.802	0.673	0.682	0.625	0.521	0.5	0.558	0.518	0.367	0.678	0.647	0.62	0.594	0.418
LCLC-97TM1	0.506	0.365	0.247	0.398	0.333	0.327	0.289	0.242	0.21	0.24	0.196	0.209	0.186	0.171	0.223	0.867	0.799	0.627		0.614
EMC-BAC-2	1.15	1.1	1.08	1.16	1.22	0.826	0.797	0.758	0.751	0.794	0.307	0.316	0.292	0.29	0.281	0.53	0.614	0.564	0.505	0.849
NCI-H1975	1.16	1.04	1.13	1.11	1.09	1.04	0.928	0.964	0.966	0.842	0.821	0.776	0.762	0.699	0.505	0.693	0.688	0.716	0.707	0.604
BEN	0.064	0.0577	0.0627	0.0713	0.0844	0.756	0.815	0.948	0.811	1.04	0.479	0.534	0.491	0.484	0.506	0.607	0.531	0.601	0.559	0.635
NCI-H23	0.835	0.876	0.762	0.962	0.719	0.583	0.523	0.41	0.496	0.448	0.359	0.381	0.376	0.41	0.271	0.7	0.523	0.667	0.584	0.551
NCI-H520	1.11	1.05	1.16	0.926	0.967	0.719	0.675	0.809	0.742	0.747	0.426	0.441	0.434	0.466	0.413	0.659	0.71	0.838	0.673	0.452
CAL-12T	1.47	1.31	1.17	1.33	1.15	0.562	0.565	0.693	0.589	0.686	0.345	0.3	0.291	0.312	0.255	0.728	0.662	0.903	0.73	0.895
EPLC-272H	1.16	1.42	0.966	1.11	0.763	0.939	0.862	0.752	0.943	0.656	0.258	0.377	0.383	0.244	0.208	0.417	0.662	0.621	0.429	0.384
NCI-H2405	1.02	1	0.901	0.881	0.4	0.854	0.89	0.811	0.852	0.565	0.763	0.792	0.746	0.684	0.455	1.08	1.03	1.02	1.04	0.809
HCC-15	0.722	0.676	0.624	0.553	0.411	0.778	0.821	0.738	0.626	0.565	0.443	0.358	0.25	0.24	0.19	0.871	0.932	0.842	0.747	0.616
